Results: publication PMC4428032 (Bioconjugate Chemistry, 2015)

Tests used:
[1] = cited from earlier work
[2] = T1 relaxivity measurements at 0.5 T; type: physicochemical; conditions: 20 MHz, 25 °C

| T1 relaxivity [2] [mM^–1 s^–1] | Structure (SMILES) | thermodynamic stability constant log K [1] |
| --- | --- | --- |
|  | O=C([O-])CN1CCN(CC(=O)[O-])CCN(CC(=O)[O-])CC1.[Ga+3] [Ga-NOTA] | 31.0 |
|  | O=C([O-])CN1CCN(CC(=O)[O-])CCN(CC(=O)O)CCN(CC(=O)[O-])CC1.[Gd+3] [Gd-DOTA] | 24.7 |
|  | O=C([O-])CN1CCN(CC(=O)[O-])CCN(CC(=O)[O-])CC1.[Gd+3] [Gd-NOTA] | 14.3 |
| 4.1 | CNC[C@H](O)[C@@H](O)[C@H](O)[C@H](O)CO.CNC[C@H](O)[C@@H](O)[C@H](O)[C@H](O)CO.O=C([O-])CN(CCN(CC(=O)[O-])CC(=O)O)CCN(CC(=O)[O-])CC(=O)O.[Gd+3] [Magnevist] |  |
